# Data as given in patent US9636311B2, “N,N′-di-1 naphthylguanidine HCl (NAGH) and N,N′-di-p-nitrophenylguanidine HCl (NAD) treatment for stroke at delayed timepoints” (University of South Florida, priority 2012, dated 2017).
# How the values were obtained:
# Assay type in all cases: in vivo, rat
# rats following MCAO [1] = experiment: Battery of behavioral tests after MCAO (corner, grip, rotorod, step, cylinder); settings: 30 days after MCAO
# Experimental: After surgery, animals were tested was performed once before surgery and 30 days post-surgery for motor coordination and behavior. All behavioral data are reported as mean+sem.
# Rotorod test, which measures motor coordination, was conducted using Omni-rotor Rotorod (Omnitech, Inc). Animals were trained on the accelerating rotorod apparatus for 3 consecutive days before times were collected. Animals were placed on the revolving rod and instrument was set to accelerate to a maximum speed of 40 rpm over 180 seconds. Latency to fall (in seconds) was recorded. This test was performed in triplicate once per day for 3 days.
# Rats were held tightly with one forelimb placed on a hard flat table top and then pulled for a length of 1 meter in the direction of the placed forelimb at constant velocity. The test was repeated with the opposite forelimb. This was repeated three times for each forelimb and the percent of contralateral forelimb paw was obtained. The bias was standardized as the absolute number of steps with the contralateral paw minus 100.
# The animals were placed in a transparent cylinder about 20 cm in diameter and 30 cm in height with an open top. The number times each paw was placed on the sides of the cylinder was counted a5 minute period. The test was videotaped and a mirror was placed behind the cylinder allowing the experimenter to see the placement of paws when the animal was facing away from the camera.
# A 30 degree angle was formed using the edges of two plexiglass boards. The animals were placed halfway into the corner facing the corner and the total number of left and right turns was recorded. A total of 10 trials were conducted and videotaped. A non-lesioned animal turned randomly toward the left or right, while a lesioned animal preferentially turned toward the non-impaired (left) side. Results were reported as the percentage of ipsilateral (injury site, right side) versus contralateral turns.
# Motor deficits were assessed using a grip strength meter (Bioseb, # BIO-GS3). […] Grip strength was recorded in Newtons (N). […]
# rats following MCAO [2] = experiment: Iba1 immunostaining of microglia after MCAO; settings: 30 days after stroke; p>0.05
# Experimental: (§1) MCAO surgeries were performed as described elsewhere (Vendrame M, Cassady C J, Newcomb J, Butler T, Pennypacker K R, Zigova T, et al. Stroke. 2004; 35:2390-2395). Briefly, rats were anesthetized with isoflurane, and the right common carotid and external carotid arteries were exposed using blunt dissection techniques. The vagus nerve was separated from common carotid artery and the external carotid artery was ligated proximally, and transected near the bifurcation. An embolus 40 mm in length (4.0 siliconized monofilament) was inserted into the external carotid artery and fed distally into the origin of the middle cerebral artery (˜25 mm from insertion) through the internal carotid artery. Blood samples were taken and analyzed using an i-STAT handheld analyzer for hemoglobin, hematocrit, ionized calcium, glucose, sodium, potassium, pH, pCO2, HCO3, TCO2, base excess, pO2, and O2. Cerebral blood flow was recorded using a Laser Doppler Monitor (Moor Instruments) to verify occlusion. […]
# Anti-Iba1 (1:500; Wako 019-19741) immunocytochemistry was used for the specific identification of microglia. […] Iba-1 positive cells were quantified (n=12) as previously detailed by Smirkin et al. (Smirkin, Matsumoto et al. 2010) with little modification. […] Total number of Iba-1 positive cells were counted manually by two observer using ImagePro plus software.
# rats following MCAO [3] = experiment: Elevated body swing test after MCAO; settings: 30 days after MCAO; p=0.009
# Experimental: as §1
# The animal was placed in a Plexiglas box (40×40×35.5 cm), allowed to habituate for 2 minutes and attain a neutral position, defined as having all four paws on the ground. […] A swing was recorded whenever the animal moved its head out of the vertical axis to the right or left over […]. Swings were recorded using a hand counter. […]
# rats following MCAO [4] = experiment: Spontaneous activity (automated activity monitor) after MCAO; settings: 1 month post MCAO
# Experimental: MCAO surgeries were performed as described elsewhere (Vendrame M, Cassady C J, Newcomb J, Butler T, Pennypacker K R, Zigova T, et al. Stroke. 2004; 35:2390-2395). Briefly, rats were anesthetized with isoflurane, and the right common carotid and external carotid arteries were exposed using blunt dissection techniques. The vagus nerve was separated from common carotid artery and the external carotid artery was ligated proximally, and transected near the bifurcation. An embolus 40 mm in length (4.0 siliconized monofilament) was inserted into the external carotid artery and fed distally into the origin of the middle cerebral artery (˜25 mm from insertion) through the internal carotid artery. Blood samples were taken and analyzed using an i-STAT handheld analyzer for hemoglobin, hematocrit, ionized calcium, glucose, sodium, potassium, pH, pCO2, HCO3, TCO2, base excess, pO2, and O2. Cerebral blood flow was recorded using a Laser Doppler Monitor (Moor Instruments) to verify occlusion. Afterwards, the embolus was ligated permanently into the vessel and the neck incision was closed. Animals were treated with Ketoprofen IM (10 mg/kg) for three days post-surgery.
# For the NAGH studies, vehicle or NAGH were prepared fresh each day. Daily subcutaneous injections (s.c) were administered beginning about 24 hours after MCAO and continued daily to about 72 hours post-surgery (FIG. 1). Animals received a total of 3 injections. A total of 84 animals were randomly assigned into 2 groups: Rats treated with vehicle (40% DMSO in sterile saline, n=42), or rats treated with 0.86 mg/kg NAGH (n=42).
# For NAD testing, a total of 32 animals were randomly assigned into 2 groups: Vehicle (n=16), and rat treated with 2.8 mg/kg NAD (n=16). Vehicle consisted of 40% DMSO in sterile saline.
# Spontaneous Activity was measured during both the day (1 hr) and night (12 hrs) using an automated activity monitor (VersaMax, Accuscan Instruments, Inc). Spontaneous Activity was measured prior to stroke to establish the normal baseline for each individual animal as well as 1 month after the MCAO. The animals were placed in a Plexiglas box and allowed to roam freely. There is a three dimensional infrared array in this box and when a beam is broken, activity is recorded. A total of sixteen parameters were measured including: Vertical movement, Horizontal movement, and Stereotypic activity were selected for analysis: Horizontal activity (HA), Total distance travelled (TD), Number of movements (MVN), Movement time (MVT), Vertical activity (VA), Number of vertical movements (VMN), vertical time (VT), Stereotype counts (SC), Number of Stereotypy (SN), Stereotypy time (ST), Clockwise rotation (CR), counterclockwise rotation (CCR), Margin distance (MD), Marginal time (MT), Center distance (CD), and Center time (CT). The data are presented as mean+SEM of percent of baseline behavior.
structure (smiles),measurement,setting,value
"Cl.N=C(Nc1cccc2ccccc12)Nc1cccc2ccccc12 [NAGH, N,N′-di-1-Naphthylguanidine hydrochloride]","Overall behavioral data vs vehicle, all tests except EBST",rats following MCAO [1]; NAGH 0.86 mg/kg s.c. x3,no significant differences
same,Changes in asymmetry on the cylinder test,rats following MCAO [1]; NAGH,failed to gain significance
same,Activated microglia (Iba1 positive cells) in peri-infarct and ischemic core vs DMSO,rats following MCAO [2],not statistically significant
same,EBST bias vs DMSO,rats following MCAO [3],significantly less bias
same,Daytime horizontal activities vs DMSO,rats following MCAO [4]; 1-hr test,no significant differences
same,Daytime vertical time (VT) vs DMSO,"rats following MCAO [4]; 1-hr test, p=0.01",significantly less active
same,Daytime vertical activity (VA) vs DMSO,"rats following MCAO [4]; 1-hr test, p=0.03",significantly less active
same,Daytime number of vertical movements (VMN) vs DMSO,"rats following MCAO [4]; 1-hr test, p=0.15",more active than DMSO group
same,"Daytime stereotypy activity (SC, SN, ST) decrease vs DMSO","rats following MCAO [4]; 1-hr test, p>0.05",failed to reach a statistically significant level
same,Nighttime horizontal parameters decrease vs DMSO,rats following MCAO [4]; 12-hr test,did not reach statistical significance
same,"Nighttime stereotypic behavior (SC, SN, ST) vs DMSO",rats following MCAO [4]; 12-hr test,did not show any significant difference
same,Nighttime vertical activity (VA) vs DMSO,"rats following MCAO [4]; 12-hr test, p=0.01",significantly less active
same,Nighttime number of vertical movements (VMN) vs DMSO,"rats following MCAO [4]; 12-hr test, p=0.015",significantly more active
same,Nighttime vertical time (VT) vs DMSO,"rats following MCAO [4]; 12-hr test, p=0.03",significantly less active
